From publication PMC5291822 (Bioorganic & medicinal chemistry, 2016)

Biological target: T1, human GVIA iPLA2 (Homo sapiens, UniProt O60733)
T1 sequence (O60733 1-806): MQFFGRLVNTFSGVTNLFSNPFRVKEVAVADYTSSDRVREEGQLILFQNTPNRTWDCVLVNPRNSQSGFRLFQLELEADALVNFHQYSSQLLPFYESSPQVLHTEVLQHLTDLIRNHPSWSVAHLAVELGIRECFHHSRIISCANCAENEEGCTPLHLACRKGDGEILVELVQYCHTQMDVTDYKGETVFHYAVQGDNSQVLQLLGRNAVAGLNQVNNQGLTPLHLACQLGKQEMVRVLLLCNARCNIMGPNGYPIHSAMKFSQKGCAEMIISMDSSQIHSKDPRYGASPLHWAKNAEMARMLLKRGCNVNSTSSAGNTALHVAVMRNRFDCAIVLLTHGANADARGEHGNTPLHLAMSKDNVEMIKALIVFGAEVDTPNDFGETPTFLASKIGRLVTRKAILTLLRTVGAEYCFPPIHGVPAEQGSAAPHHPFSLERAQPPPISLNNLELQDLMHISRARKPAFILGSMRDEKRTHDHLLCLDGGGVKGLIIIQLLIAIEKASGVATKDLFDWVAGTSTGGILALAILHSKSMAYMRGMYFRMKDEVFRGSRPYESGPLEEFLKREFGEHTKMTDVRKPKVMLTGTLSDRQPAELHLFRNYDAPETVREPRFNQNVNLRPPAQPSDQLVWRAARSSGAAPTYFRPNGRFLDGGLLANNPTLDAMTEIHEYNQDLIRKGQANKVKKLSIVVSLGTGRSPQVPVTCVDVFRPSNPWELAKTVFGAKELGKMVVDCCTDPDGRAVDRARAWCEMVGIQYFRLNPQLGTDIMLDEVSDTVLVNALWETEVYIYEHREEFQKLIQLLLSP
Assay: mixed micelle modified Dole assay, GVIA iPLA2
Assay type: biochemical
Details: for XI(50) GVIA iPLA2: mole fraction of inhibitor in total substrate interface giving 50% inhibition

| SMILES | IC50 [µM] | XI(50) GVIA iPLA2 [mole fraction] | times more potent inhibition of GVIA iPLA2 than of GIVA cPLA2 (selectivity GVIA iPLA2 over GIVA cPLA2) | inhibitory activity on GVIA iPLA2 (in words) |
| --- | --- | --- | --- | --- |
| CCCC[C@H](NC(=O)C(=O)CCCCc1ccc(OC)cc1)C(=O)NCCCC(=O)OC(C)(C)C [compound 12e, (S)-tert-Butyl 4-(2-(6-(4-methoxyphenyl)-2-oxohexanamido)hexanamido)butanoate] | 3.8 | 0.007 | around 13 times | – |
| CCCC[C@H](NC(=O)C(=O)CCCCc1ccc(OC)cc1)C(=O)NCC(=O)OCc1ccccc1 [compound 31a, (S)-Benzyl 2-(2-(6-(4-methoxyphenyl)-2-oxohexanamido)hexanamido)acetate] | 14 | 0.026 | – | – |
| CCCC[C@H](NC(=O)C(=O)CCCCc1ccccc1)C(=O)NCC(=O)O [13a, (S)-2-(2-(2-Oxo-6-phenylhexanamido)hexanamido)acetic acid] | – | – | – | totally inactive |
| COc1ccc(CCCCC(=O)C(=O)N[C@@H](CC(C)C)C(=O)NCC(=O)OC(C)(C)C)cc1 [compound 22a, (S)-tert-Butyl 2-(2-(6-(4-methoxyphenyl)-2-oxohexanamido)-4-methylpentanamido)acetate] | 13 | 0.024 | – | – |
| CCCC[C@H](NC(=O)C(=O)CCCCc1ccc(OC)cc1)C(=O)NCC(=O)OC(C)(C)C [compound 12c, (S)-tert-Butyl 2-(2-(6-(4-methoxyphenyl)-2-oxohexanamido)hexanamido)acetate] | 6.6 | 0.012 | – | – |
| CCCC[C@H](NC(=O)C(=O)CCCCc1ccc2ccccc2c1)C(=O)NCC(=O)O [13b, (S)-2-(2-(6-(Naphthalen-2-yl)-2-oxohexanamido)hexanamido) acetic acid] | – | – | – | totally inactive |
| CCCC[C@@H](COCC(=O)O)NC(=O)C(=O)CCCCc1ccc(OC)cc1 [20d, (S)-2-((2-(6-(4-Methoxyphenyl)-2-oxohexanamido)hexyl)oxy)acetic acid] | – | – | – | totally inactive |
